Results from patent publication US20250051355A1, “COMPOUNDS, COMPOSITIONS, AND METHODS” (ACONCAGUA BIO, INC., priority 2023, published 2025).

Assays:
[1] = biological target: human calcitonin receptor (CTR) and RAMP3 (AMY3) (Homo sapiens, UniProt O60896+P30988); experiment: Amylin Receptor cAMP Assay II; format: cell-based; conditions: COS-7/AMY3 cells, cAMP dynamic 2 kit, read-out: Amylin Receptor cAMP Stimulation Activity: EC50
Summary of the method: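 COS-7 cells stably co-expressing human CTR and RAMP3 (AMY3) were treated with 4-fold serially diluted compounds at 2000 cells/well in HBSS with 20 mM HEPES, 0.5 mM IBMX and 0.1% casein for 30 min at 37 °C. cAMP was measured by HTRF (cAMP-d2 plus anti-cAMP cryptate, 1 h at RT) with reads at 665/615 nm.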

[2] = biological target: T1, human calcitonin receptor (CTR) (Homo sapiens, UniProt P30988); experiment: Calcitonin receptor (CTR) cAMP Assay; format: cell-based; conditions: COS7-human CTR Clone #2 cells, cAMP dynamic 2 kit; read-out: Calcitonin Receptor cAMP Stimulation Activity: EC50
T1 construct: expressed in transfected cells; host or cells: COS-7 (COS7-human CTR Clone #2)
T1 sequence (P30988 25-474): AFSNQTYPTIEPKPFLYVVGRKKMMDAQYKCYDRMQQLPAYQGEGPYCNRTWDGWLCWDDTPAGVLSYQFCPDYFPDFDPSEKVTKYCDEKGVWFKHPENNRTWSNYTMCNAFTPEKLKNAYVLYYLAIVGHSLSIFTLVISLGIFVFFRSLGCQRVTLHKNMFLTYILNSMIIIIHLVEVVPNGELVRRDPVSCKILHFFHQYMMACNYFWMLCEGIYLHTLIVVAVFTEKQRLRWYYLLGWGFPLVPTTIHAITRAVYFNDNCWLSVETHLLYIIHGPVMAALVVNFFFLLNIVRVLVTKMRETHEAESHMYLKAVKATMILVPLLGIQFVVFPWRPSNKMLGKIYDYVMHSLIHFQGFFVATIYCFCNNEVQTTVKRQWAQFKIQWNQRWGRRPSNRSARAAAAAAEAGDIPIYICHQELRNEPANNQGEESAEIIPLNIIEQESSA
Summary of the method: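 COS-7 cells stably expressing human CTR (2000 cells/well) treated with 4-fold serially diluted compounds in HBSS/20 mM HEPES/0.5 mM IBMX/0.1% casein, 30 min at 37° C. cAMP quantified by HTRF (cAMP-d2 plus anti-cAMP cryptate, 1 h RT), fluorescence read at 665 and 615 nm.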

human calcitonin receptor (CTR) and RAMP3 (AMY3), sequence (O60896 24-148, one chain of several): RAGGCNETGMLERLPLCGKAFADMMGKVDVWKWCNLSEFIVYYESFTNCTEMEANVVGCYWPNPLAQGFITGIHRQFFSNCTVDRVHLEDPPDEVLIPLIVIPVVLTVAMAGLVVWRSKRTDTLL

Structure (SMILES)	EC50 [1]	EC50 [2]
Cc1nnc(-c2c(CCC3CC(C)OC(C)C3)nc3c(c2-c2cc4ncnc(N[C@@H]5CCc6ncccc65)c4s2)S(=O)(=O)CC3C(C)C)o1 (stereo partly drawn) [Compound 98, N—(R)-4-aza-1-indanyl(2-(5-[2-(2,6-dimethyltetrahydro-2H-pyran-4-yl)ethyl]-3-isopropyl-6-(5-methyl-1,3,4-oxadiazol-2-yl)-1,1-dioxo-1λ^8-thia-4-aza-7-indanyl}-1-thia-4,6-diaza-7-indenyl)amine]	352 nM	39.2 nM
COc1cccc2c1CC[C@H]2Nc1nccc2cc(-c3c4c(nc(CCc5ccc(F)cc5)c3-c3nnc[nH]3)[C@@H]3CCCN3C4=O)sc12 [Compound 85, (S)-2-(4-fluorophenethyl)-4-(7-(((R)-4-methoxy-2,3-dihydro-1H-inden-1-yl)amino)thieno[2,3-c]pyridin-2-yl)-3-(4H-1,2,4-triazol-3-yl)-7,8,9,9a-tetrahydro-5H-pyrido[2,3-a]pyrrolizin-5-one]	13 nM	0.676 nM
Cc1ccnc(-c2c(CCC3CCOCC3)nc3c(c2-c2cc4ccnc(N[C@@H]5CCc6ncccc65)c4s2)S(=O)(=O)CC3C(C)C)c1 (stereo partly drawn) [Compound 118, N—(R)-4-aza-1-indanyl(2-(3-isopropyl-6-(4-methyl-2-pyridyl)-1,1-dioxo-5-[2-(tetrahydro-2H-pyran-4-yl)ethyl]-11′-thia-4-aza-7-indanyl}-1-thia-6-aza-7-indenyl)amine]	449 nM	72.8 nM
Cc1nnc(-c2c(CCC3CCOC3)nc3c(c2-c2cc4ncnc(N[C@@H]5CCc6ncccc65)c4s2)S(=O)(=O)CC3C(C)C)o1 (stereo partly drawn) [Compound 99, N—(R)-4-aza-1-indanyl(2-(3-isopropyl-6-(5-methyl-1,3,4-oxadiazol-2-yl)-1,1-dioxo-5-[2-(tetrahydro-3-furyl)ethyl]-1λ^6-thia-4-aza-7-indanyl}-1-thia-4,6-diaza-7-indenyl)amine]	1900 nM	208 nM
CC(C)C1CS(=O)(=O)c2c1nc(CCC1CCOCC1)c(-c1nnc[nH]1)c2-c1cc2ccnc(N[C@@H]3CCc4ncccc43)c2s1 (stereo partly drawn) [Compound 119, 7-(7-(((R)-6,7-dihydro-5H-cyclopenta[b]pyridin-5-yl)amino)thieno[2,3-c]pyridin-2-yl)-3-isopropyl-5-(2-(tetrahydro-2H-pyran-4-yl)ethyl)-6-(4H-1,2,4-triazol-3-yl)-2,3-dihydrothieno[3,2-b]pyridine 1,1-dioxide]	68.3 nM	11.6 nM
Cc1nnc(-c2c(CCC3CCOCC3)nc3c(c2-c2cc4ccnc(N[C@@H]5CCc6ncccc65)c4o2)S(=O)(=O)CC3C(C)C)o1 (stereo partly drawn) [Compound 90, N—(R)-4-aza-1-indanyl(2-(3-isopropyl-6-(5-methyl-1,3,4-oxadiazol-2-yl)-1,1-dioxo-5-[2-(tetrahydro-2H-pyran-4-yl)ethyl]-1λ^6-thia-4-aza-7-indanyl}-1-oxa-6-aza-7-indenyl)amine]	1580 nM	998 nM
Cc1nnc(-c2c(C(C)C)nc3c(c2-c2ccc4c(c2)OC(C)(C)C(=O)N4Cc2ccc(F)cn2)C(=O)N2CC4CC32C4)o1 [Compound 160, 4-[(5-fluoro-2-pyridyl)methyl]-7-[4-isopropyl-5-(5-methyl-1,3,4-oxadiazol-2-yl)-8-oxo-3,9-diazatetracyclo[9.1.1.0^1,9.0^2,7]trideca-2,4,6-trien-6-yl]-2,2-dimethyl-4H-1,4-benzoxazin-3(2H)-one]	596 nM	26.9 nM
Cc1nnc(-c2c(CCC3CCOCC3)nc3c(c2-c2ccc4c(c2)oc(=O)n4C(C)c2ccc(C#N)c(F)c2)c(=O)n2n3CCC2)o1 (stereo not shown) [Compound 114, 2-fluoro-4-[1-(6-(10-(5-methyl-1,3,4-oxadiazol-2-yl)-7-oxo-11-[2-(tetrahydro-2H-pyran-4-yl)ethyl]-2,6,12-triazatricyclo[6.4.0.0^2,6]dodeca-1(12),8,10-trien-9-yl}-2-oxo-1,3-benzoxazol-3-yl)ethyl]benzonitrile]	135 nM	4.15 nM

The next lines start with the values.

EC50 [1]	EC50 [2]	Structure (SMILES)
187 nM	13 nM	Cc1nnc(-c2c(CCC3CCOCC3)nc3c(c2-c2cc4ccnc(N[C@@H]5CCc6ncccc65)c4s2)S(=O)(=O)CC3C(C)C)o1 (stereo partly drawn) [Compound 78, 7-(7-(((R)-6,7-dihydro-5H-cyclopenta[b]pyridin-5-yl)amino)thieno[2,3-c]pyridin-2-yl)-3-isopropyl-6-(5-methyl-1,3,4-oxadiazol-2-yl)-5-(2-(tetrahydro-2H-pyran-4-yl)ethyl)-2,3-dihydrothieno[3,2-b]pyridine 1,1-dioxide]
155 nM	11.3 nM	Cc1nnc(-c2c(CCC3CCOCC3)nc3c(c2-c2ccc4c(cnn4C(C)c4ccc(C#N)c(F)c4)c2)C(=O)N2CCOC[C@@H]32)o1 (stereo partly drawn) [Compound 111, 4-[1-(5-((4aR)-7-(5-methyl-1,3,4-oxadiazol-2-yl)-9-oxo-6-[2-(tetrahydro-2H-pyran-4-yl)ethyl]-1,2,4,4a-tetrahydro-9H-3-oxa-5,9a-diazafluoren-8-yl}-1H-indazol-1-yl)ethyl]-2-fluorobenzonitrile]
2070 nM	129 nM	Cc1nnc(-c2c(CCC3CCCCO3)nc3c(c2-c2ccc(C(=O)NCc4ccc(F)c(F)c4)s2)C(=O)N2CCC[C@@H]32)o1 (stereo partly drawn) [Compound 62, N-(3,4-difluorobenzyl)-5-((9aS)-3-(5-methyl-1,3,4-oxadiazol-2-yl)-5-oxo-2-(2-(tetrahydro-2H-pyran-2-yl)ethyl)-7,8,9,9a-tetrahydro-5H-pyrido[2,3-a]pyrrolizin-4-yl)thiophene-2-carboxamide]
857 nM	35.6 nM	Cc1nnc(-c2c(CCC3CCOCC3)nc3c(c2-c2cc4ccnc(N[C@@H]5CCc6ncccc65)c4s2)C(=O)N2CCOC[C@@H]32)o1 [Compound 95, (R)-4-(7-(((R)-6,7-dihydro-5H-cyclopenta[b]pyridin-5-yl)amino)thieno[2,3-c]pyridin-2-yl)-3-(5-methyl-1,3,4-oxadiazol-2-yl)-2-(2-(tetrahydro-2H-pyran-4-yl)ethyl)-7,8,10,10a-tetrahydro-5H-pyrido[2′,3′:3,4]pyrrolo[2,1-c][1,4]oxazin-5-one]
325 nM	7.5 nM	Cc1nnc(-c2c(CCC3CCOCC3)nc3c(c2-c2cc4ccnc(N[C@@H]5CCc6ncccc65)c4s2)S(=O)(=O)N2CCC[C@@H]32)o1 [Compound 81, (S)-4-(7-(((R)-6,7-dihydro-5H-cyclopenta[b]pyridin-5-yl)amino)thieno[2,3-c]pyridin-2-yl)-3-(5-methyl-1,3,4-oxadiazol-2-yl)-2-(2-(tetrahydro-2H-pyran-4-yl)ethyl)-7,8,9,9a-tetrahydropyrrolo[1′,2′:2,3]isothiazolo[4,5-b]pyridine 5,5-dioxide]
128 nM	11.7 nM	Cc1nnc(-c2c(CCC3CCOCC3)nc3c(c2-c2cnc4c(ccn4Cc4ccc(C#N)c(F)c4)c2)S(=O)(=O)N2CCC[C@@H]32)o1 [Compound 126, 4-[(5-{(2S)-10-(5-methyl-1,3,4-oxadiazol-2-yl)-7,7-dioxo-11-[2-(tetrahydro-2H-pyran-4-yl)ethyl]-7λ^6-thia-6,12-diazatricyclo[6.4.0.0^2,6]dodeca-1(12),8,10-trien-9-yl}-1H-1,7-diazainden-1-yl)methyl]-2-fluorobenzonitrile]
